Source: patent publication US10045978B2 (AB SCIENCE, priority 2010, dated 2018)

What was measured:
[1] = test system: patients with smoldering systemic, indolent systemic or cutaneous mastocytosis with handicap; test: phase 3 study AB06006, masitinib versus placebo; assay type: in vivo, human
Source text: The trial lasted 24 weeks with possible extension. In accordance with protocol amendment version 7.0 (v7), the study population was amended to a more restricted subpopulation of mastocytosis. […] The trial lasted 24 weeks with possible extension. […] To be noted, for the purpose of efficacy analysis a patient was classified as severe if they suffered from at least one of the main handicaps constituting the primary endpoint: […] The criterion of “at least two of the following handicaps” including handicaps on stools and micturition, was relaxed to “at least one of the main handicaps” (i.e. pruritus, flushes, depression and fatigue). […] At each patient evaluation between weeks 8 and 24, each of the above four severe symptoms was evaluated. […] In this case, missing data was imputed as failure (missing=failure as primary analysis). • Case 2: discontinuation for a documented reason excluding toxicity or lack of efficacy. In this case, non-observed values can be considered as Missing At Random (MAR), and no imputation will be done (Observed Cases). • Replacement of missing value for patients present at the visit: If data was missing despite the patient being present at the visit, said missing data was not replaced. Secondary Analysis: […] (asthenia). • A second group comprised patients diagnosed as having severe indolent systemic mastocytosis, severe smoldering systemic mastocytosis, or severe cutaneous mastocytosis. […] This group provides comparative analysis for patient selection according to variant of mastocytosis (i.e. systemic versus cutaneous). • A third group comprised all randomized patients to study AB06006, corresponding therefore to the least restricted population, comprising patients with severe/non severe indolent and smoldering systemic mastocytosis, and severe/non severe cutaneous mastocytosis. This group provides comparative analysis based on patient selection according to severity of mast cell mediator release symptoms. […] ≥40. Diff=absolute difference in response rates between treatment-arms of a given population (masitinib arm minus placebo arm). Factor Diff=ratio of 'Diff' between compared populations showing relative superiority of response rate for severe systemic population over the comparator population. […] ****PF=patients with both pruritus and flushes handicap at baseline.

[2] = test system: patients with indolent mastocytosis with handicap bearing the D816V c-Kit mutation; test: Example 2 phase 2a study, efficacy; assay type: in vivo, human; parameters: mean reduction of FIS score / mean reduction of pruritus score / mean reduction in frequency of flushes / reduction of daily number of stools / reduction of daily number of micturition / AFIRMM score reduction: concentration or dose not given beside the values; conditions: week 12
Source text: Eligible patients were aged >18 years, had previously documented indolent systemic, smoldering systemic or cutaneous mastocytosis as per the WHO classification with associated disability as the result of mast cell released mediators. Patients had to have a positive D816V c-Kit mutation status, i.e. documented presence of D816V mutation in at least one infiltrated organ including bone marrow or skin. For patients with prior documented presence of D816V mutation in at least one infiltrated organ (bone marrow or skin), no test was performed at the screening visit; however, for those patients without such documentation it was necessary to perform c-Kit molecular analysis prior to randomization. Skin biopsy and optionally (unless patients had no cutaneous lesion) a bone marrow aspirate or biopsy, were performed at baseline to confirm the presence of D816V mutation and to count mast cells in the infiltrated organs. All skin biopsies, bone marrow aspirate or biopsies, performed for this study were sent to the AB Science central laboratory for sequencing and mast cell counting. Patients were classified as having a handicap if after appropriate symptomatic treatments they fulfilled at least one of the following a priori criteria: number of flushes/week ≥7; pruritus score ≥6; number of stools ≥4/day (i.e. diarrhea); micturition frequency ≥8/day (i.e. pollakiuria); Hamilton rating for depression ≥10; Fatigue Impact Scale (FIS) score ≥40; or EORTC quality-of-life questionnaire (QLQ-C30) score ≥60. Patients were excluded if they experienced inadequate organ function defined via blood test levels, or an Eastern Cooperative Oncology Group performance status >2. Other exclusion criteria included: life expectancy <6 months, severe or uncontrolled medical disease, and patients who were pregnant or nursing.
In accordance to the AFIRMM study (Hermine O, et al., 2008, PLoS ONE. 3:e2266), evaluation of treatment response was based upon the change of clinical symptoms associated with a patient's handicaps at week 12 relative to baseline. Efficacy was assessed on the symptoms of mastocytosis. Primary efficacy endpoints were treatment effect on the pruritus score, the number of flushes per week, the Hamilton score, and the Fatigue Impact scale.

[3] = moderate baseline handicap, all patients
[4] = moderate baseline handicap, all patients (n = 110)
[5] = moderate baseline handicap, severe indolent/smoldering systemic
[6] = moderate baseline handicap, severe indolent/smoldering systemic (n = 67)
[7] = moderate baseline handicap, severe systemic vs all patients
[8] = severe baseline handicap, severe cutaneous/indolent/smoldering
[9] = severe baseline handicap, severe cutaneous/indolent/smoldering (n = 110)
[10] = severe baseline handicap, severe indolent/smoldering systemic
[11] = severe baseline handicap, severe indolent/smoldering systemic (n = 67)
[12] = severe baseline handicap, severe systemic vs severe cutaneous/indolent/smoldering
[13] = patients with this handicap at baseline

## Cc1ccc(NC(=O)c2ccc(CN3CCN(C)CC3)cc2)cc1Nc1nc(-c2cccnc2)cs1 [masitinib, 4-(4-methylpiperazin-1-ylmethyl)-N-[4-methyl-3-(4-pyridin-3ylthiazol-2-ylamino)phenyl]benzamide]
[1]; [3]
  2H[75%] Diff (masitinib arm minus placebo arm): 2.9%
  3H[75%] Diff (masitinib arm minus placebo arm): 2.3%
  4H[75%] Diff (masitinib arm minus placebo arm): 0.4%
  PF Diff (masitinib arm minus placebo arm): 0.2%
[1]; [4]
  2H[75%] cumulative response: 23.3%
  3H[75%] cumulative response: 20.3%
  4H[75%] cumulative response: 16.3%
  PF cumulative response: 26.9%
[1]; [5]
  2H[75%] Diff (masitinib arm minus placebo arm): 12.2%
  3H[75%] Diff (masitinib arm minus placebo arm): 12.8%
  4H[75%] Diff (masitinib arm minus placebo arm): 10.1%
  PF Diff (masitinib arm minus placebo arm): 10.7%
[1]; [6]
  2H[75%] cumulative response: 28.2%
  3H[75%] cumulative response: 24.8%
  4H[75%] cumulative response: 19.6%
  PF cumulative response: 28.7%
[1]; [7]
  2H[75%] Factor Diff: 4.2
  3H[75%] Factor Diff: 5.6
  4H[75%] Factor Diff: 25.3
  PF Factor Diff: 53.5
[1]; [8]
  2H[75%] Diff (masitinib arm minus placebo arm): 7.4%
  3H[75%] Diff (masitinib arm minus placebo arm): 6.3%
  4H[75%] Diff (masitinib arm minus placebo arm): 3.3%
  PF Diff (masitinib arm minus placebo arm): 6.9%
[1]; [9]
  2H[75%] cumulative response: 22.0%
  3H[75%] cumulative response: 20.0%
  4H[75%] cumulative response: 15.4%
  PF cumulative response: 30.6%
[1]; [10]
  2H[75%] Diff (masitinib arm minus placebo arm): 16.5%
  3H[75%] Diff (masitinib arm minus placebo arm): 15.2%
  4H[75%] Diff (masitinib arm minus placebo arm): 11.1%
  PF Diff (masitinib arm minus placebo arm): 17.8%
[1]; [11]
  2H[75%] cumulative response: 27.2%
  3H[75%] cumulative response: 24.9%
  4H[75%] cumulative response: 18.6%
  PF cumulative response: 35.4%
[1]; [12]
  2H[75%] Factor Diff: 2.2
  3H[75%] Factor Diff: 2.4
  4H[75%] Factor Diff: 3.4
  PF Factor Diff: 2.6
[2]
  AFIRMM score reduction: 32.0%
[2]; PP population
  Hamilton score improvement: 27.0%
  mean reduction in frequency of flushes: 45.5%
  mean reduction of FIS score: 51.8%
  mean reduction of pruritus score: 46.0%
[2]; PP population (14 of 20 patients)
  overall response rate (improvement ≥50%): 70%
[2]; PP population (four patients)
  patients remaining stable: 20%
[2]; patients with diarrhea at baseline
  reduction of daily number of stools: 41.3%
[2]; patients with pollakiuria at baseline
  reduction of daily number of micturition: 30.3%
[2]; [13]
  Hamilton score improvement: 44.3%
  mean reduction in frequency of flushes: 55.3%
  mean reduction of FIS score: 45.6%
